In one test the test system is HCV replicon cells. The test can be described thus: HCV replicon FRET assay. The test is classed as cell-based. To be noted: Hepatitis C virus. The text has this: FRET Assay Preparation. To perform the HCV FRET screening assay, 96-well cell culture plates were used. The FRET peptide (Anaspec, Inc.) (Taliani et al., Anal Biochem. 1996, 240, 60-67) contains a fluorescence donor, EDANS, near one end of the peptide and an acceptor, DABCYL, near the other end. The fluorescence of the peptide is quenched by […] resonance energy transfer (RET) between the donor and the acceptor, but as the NS3 protease cleaves the peptide the products are released from RET quenching and the fluorescence of the donor becomes apparent. The assay reagent was made as follows: 5× cell Luciferase cell culture lysis reagent from Promega (#E153A) diluted to 1× with dH2O, NaCl added to 150 mM final, the FRET peptide diluted to 20 μM final from a 2 mM stock.
To prepare plates, HCV replicon cells, with or without a Renilla luciferase reporter gene, were trypsinized and placed into each well of a 96-well plate with titrated test compounds added in columns 3 through 12; columns 1 and 2 contained a control compound (HCV protease inhibitor), and the bottom row contained cells without compound. The plates were then placed in a CO2 incubator at 37° C.
Assays. Subsequent to addition of the test compounds described above (FRET Assay Preparation), at various times the plate was removed and Alamar blue solution (Trek Diagnostics, #00-100) was added per well as a measure of cellular toxicity. After reading in a Cytoflour 4000 instrument (PE Biosystems), plates were rinsed with PBS and then used for FRET assay by the addition of 30 ul of the FRET peptide assay reagent described above (FRET Assay Preparation) per well. The plate was then placed into the Cytoflour 4000 instrument which had been set to 340 excite/490 emission, automatic mode for 20 cycles and the plate read in a kinetic mode. Typically, the signal to noise using an endpoint analysis after the reads was at least three-fold. Alternatively, after Alamar blue reading, plates were rinsed with PBS, 50 ul of DMEM (high glucose) without phenol red was added and plates were then used for luciferase assay using the Promega Dual-Glo Luciferase Assay System.
Compound analysis was determined by quantification of the relative HCV replicon inhibition and the relative cytotoxicity values. To calculate cytoxicity values, the average Alamar Blue fluorescence signals from the control wells were set as 100% non-toxic. The individual signals in each of the compound test wells were then divided by the average control signal and multiplied by 100% to determine […]. To calculate the HCV replicon inhibition values, an average background value was obtained from the two wells containing the highest amount of HCV protease inhibitor at the end of the assay period. These numbers were similar to those obtained from naïve Huh-7 cells.
The background numbers were then subtracted from the average signal obtained from the control wells and this number was used as 100% activity. The individual signals in each of the compound test wells were then divided by the averaged control values after background subtraction and multiplied by 100% to determine percent activity. EC50 values for a protease inhibitor titration were calculated as the concentration which caused a 50% reduction in FRET or luciferase activity. The two numbers generated for the compound plate, percent cytoxicity and percent activity were used to determine compounds of interest for further analysis.
(In antiviral work, replicon cells carry a viral genome segment that copies itself.)

The target in another test is T1, HCV NS5B (Hepatitis C virus genotype 1b, UniProt Q9WMX2).
T1 construct: The protein was expressed with an 18 amino acid C-terminal truncation to enhance the solubility; made in house; host or cells: E. coli BL21(DE3)
T1 sequence (Q9WMX2 2420-2992): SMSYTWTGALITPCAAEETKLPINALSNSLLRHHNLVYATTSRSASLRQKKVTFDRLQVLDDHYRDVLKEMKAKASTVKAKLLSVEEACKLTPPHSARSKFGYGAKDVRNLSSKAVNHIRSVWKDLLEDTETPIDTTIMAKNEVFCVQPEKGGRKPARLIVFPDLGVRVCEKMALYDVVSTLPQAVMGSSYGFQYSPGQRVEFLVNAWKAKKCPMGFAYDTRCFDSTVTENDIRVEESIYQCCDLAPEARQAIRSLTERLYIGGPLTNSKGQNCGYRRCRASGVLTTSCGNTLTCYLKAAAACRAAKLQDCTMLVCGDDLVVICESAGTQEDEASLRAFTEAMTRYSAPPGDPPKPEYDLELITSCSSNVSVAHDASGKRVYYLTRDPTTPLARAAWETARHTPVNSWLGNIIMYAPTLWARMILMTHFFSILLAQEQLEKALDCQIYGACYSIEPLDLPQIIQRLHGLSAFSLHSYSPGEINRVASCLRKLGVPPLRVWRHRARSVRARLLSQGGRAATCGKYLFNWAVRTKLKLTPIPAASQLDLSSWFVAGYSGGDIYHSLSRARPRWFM
The test can be described thus: HCV NS5B RdRp enzyme assay (preincubation protocol). The test is classed as biochemical. To be noted: HCV NS5B RdRp genotype 1b. Here is the method: HCV NS5B RdRp cloning, expression, and purification. The cDNA encoding the NS5B protein of HCV, genotype 1b, was cloned into the pET21a expression vector. The protein was expressed with an 18 amino acid C-terminal truncation to enhance the solubility. The E. coli competent cell line BL21(DE3) was used for expression of the protein. Cultures were grown at 37° C. for ˜4 hours until the cultures reached an optical density of 2.0 at 600 nm. The cultures were cooled to 20° C. and induced with 1 mM IPTG. Fresh ampicillin was added to a final concentration of 50 μg/ml and the cells were grown overnight at 20° C.
Cell pellets (3 L) were lysed for purification to yield 15-24 mgs of purified NS5B. The lysis buffer consisted of 20 mM Tris-HCl, pH 7.4, 500 mM NaCl, 0.5% triton X-100, 1 mM DTT, 1 mM EDTA, 20% glycerol, 0.5 mg/ml lysozyme, 10 mM MgCl2, 15 ug/ml deoxyribonuclease I, and Complete TM protease inhibitor tablets (Roche). After addition of the lysis buffer, frozen cell pellets were resuspended using a tissue homogenizer. To reduce the viscosity of the sample, aliquots of the lysate were sonicated on ice using a microtip attached to a Branson sonicator. The sonicated lysate was centrifuged at 100,000×g for 1 hr at 4° C. and filtered through a 0.2 μm filter unit (Corning).
The protein was purified using three sequential chromatography steps: Heparin sepharose CL-6B, polyU sepharose 4B, and Hitrap SP sepharose (Pharmacia). The chromatography buffers were identical to the lysis buffer but contained no lysozyme, deoxyribonuclease I, MgCl2 or protease inhibitor and the NaCl concentration of the buffer was adjusted according to the requirements for charging the protein onto the column. Each column was eluted with a NaCl gradient which varied in length from 5-50 column volumes depending on the column type. After the final chromatography step, the resulting purity of the enzyme is >90% based on SDS-PAGE analysis. The enzyme was aliquoted and stored at −80° C.
Standard HCV NS5B RdRp enzyme assay. HCV RdRp genotype 1b assays were run in a final volume of 60 μl in 96 well plates (Costar 3912 H. The assay buffer is composed of 20 mM Hepes, pH 7.5, 2.5 mM KCl, 2.5 mM MgCl2, 1 mM DTT, 1.6 U RNAse inhibitor (Promega N2515), 0.1 mg/ml BSA (Promega R3961), and 2% glycerol. All compounds were serially diluted (3-fold) in DMSO and diluted further in water such that the final concentration of DMSO in the assay was 2%. HCV RdRp genotype 1b enzyme was used at a final concentration of 28 nM. A polyA template was used at 6 nM, and a biotinylated oligo-dT12 primer was used at 180 nM final concentration. Template was obtained commercially (Amersham 27-4110). Biotinylated primer was prepared by Sigma Genosys. 3H-UTP was used at 0.6 μCi (0.29 μM total UTP). Reactions were initiated by the addition of enzyme, incubated at 30° C. for 60 min, and stopped by adding 25 μl of 50 mM EDTA containing SPA beads (4 μg/μl, Amersham RPNQ 0007 H. Plates were read on a Packard Top Count NXT after >1 hr incubation at room temperature.
Modified HCV NS5B RdRp enzyme assay. A modified enzyme assay was performed essentially as described for the standard enzyme assay except for the following: The biotinylated oligo dT12 primer was precaptured on streptavidin-coated SPA beads by mixing primer and beads in assay buffer and incubating at room temperature for one hour. Unbound primer was removed after centrifugation. The primer-bound beads were resuspended in 20 mM Hepes buffer, pH 7.5 and used in the assay at final concentrations of 20 nM primer and 0.67 μg/μl beads. Order of addition in the assay: enzyme (14 nM) was added to diluted compound followed by the addition of a mixture of template (0.2 nM), 3H-UTP (0.6 μCi, 0.29 μM), and primer-bound beads, to initiate the reaction; concentrations given are final. Reactions were allowed to proceed for 4 hours at 30° C.
IC50 values for compounds were determined using seven different [I]. […]

EC50 and IC50 data for ten molecules are collected here from patent publication US7456165B2, “HCV NS5B inhibitors” (Bristol-Myers Squibb Company, priority 2006, dated 2008).

One may read the EC50 as the concentration at which the effect is half-maximal. A lower EC50 goes with an effect from little substance. The IC50 is the concentration that gives 50% inhibition. Take `COC(=O)c1ccc2c(C3CCCCC3)c3n(c2c1)CC(c1ncc(CCC(=O)O)o1)=Cc1cc(OC)ccc1-3` [Example 47, 3-(2-(13-Cyclohexyl-3-methoxy-10-(methoxycarbonyl)-7H-indolo[2,1-a][2]benzazepin-6-yl)-1,3-oxazol-5-yl)propanoic acid]: the EC50 with HCV replicon cells is over 500 nM. For the same molecule, at HCV NS5B, the IC50 lay in the range of 1 to 500 nM.

`O=C(O)c1ccc2c(C3CCCCC3)c3n(c2c1)CC(c1ccoc1)=Cc1ccccc1-3` [Example 45, 13-Cyclohexyl-6-(furan-3-yl)-7H-indolo{2,1-a][2]benzazepine-10-carboxylic Acid] yielded an EC50 in the test with HCV replicon cells of over 500 nM. At HCV NS5B, this molecule returned an IC50 of 1 to 500 nM.

Take `CN(C)S(=O)(=O)NC(=O)c1ccc2c(C3CCCCC3)c3n(c2c1)CC(c1ncc(CCC(=O)N2CCOCC2)o1)=Cc1ccccc1-3` [Example 37, 13-cyclohexyl-N-[(dimethylamino)sulfonyl]-6-[5-[3-(4-morpholinyl)-3-oxopropyl]-2-oxazolyl-]7H-indolo[2,1-a][2]benzazepine-10-carboxamide]: the concentration giving a half-maximal response (EC50) with HCV replicon cells was 1 to 500 nM. In addition, the half-maximal inhibitory concentration (IC50) at HCV NS5B was in the range of 1 to 500 nM.

`CCn1nnc(C2=Cc3ccccc3-c3c(C4CCCCC4)c4ccc(C(=O)O)cc4n3C2)n1` [Example 3, 13-cyclohexyl-6-(2-ethyl-2H-tetrazol-5-yl)-7H-indolo[2,1-a][2]benzazepine-10-carboxylic acid] came in with an EC50 in the test with HCV replicon cells of over 500 nM. In addition, the IC50 at HCV NS5B fell in the range of 1 to 500 nM.

For `O=C(O)c1ccc2c(C3CCCCC3)c3n(c2c1)CC(c1n[nH]c(CC2CCOCC2)n1)=Cc1ccccc1-3` [Example 22, 13-cyclohexyl-6-[3-[(tetrahydro-2H-pyran-4-yl)methyl]-1H-1,2,4-triazol-5-yl]-7H-indolo[2,1-a][2]benzazepine-10-carboxylic acid], the 50% effective concentration (EC50) in the test with HCV replicon cells is over 500 nM. The molecule also showed an IC50 at HCV NS5B of 1 to 500 nM.

On to `CN(C)S(=O)(=O)NC(=O)c1ccc2c(C3CCCCC3)c3n(c2c1)CC(c1nnn(CC2CCOCC2)n1)=Cc1ccccc1-3` [Example 15, 13-cyclohexyl-N-[(dimethylamino)sulfonyl]-6-[2-[(tetrahydro-2H-pyran-4-yl)methyl]-2H-tetrazol-5-yl]-7H-indolo[2,1-a][2]benzazepine-10-carboxamide], for which the EC50 in the test on HCV replicon cells is over 500 nM. On HCV NS5B, this molecule came in with an IC50 of 1 to 500 nM.

Turning to `COc1ccc2c(c1)CC(c1ncc(CCC(=O)N3CCOCC3)o1)Cn1c-2c(C2CCCCC2)c2ccc(C(=O)O)cc21` (racemic) [Example 50, 13-Cyclohexyl-3-methoxy-6-(5-(3-(4-morpholinyl)-3-oxopropyl)-1,3-oxazol-2-yl)-6,7-dihydro-5H-indolo[2,1-a][2]benzazepine-10-carboxylic acid], in the test on HCV replicon cells, the concentration for a half-maximal effect (EC50) is 1 to 500 nM. On HCV NS5B, this molecule came in with an IC50 of 1 to 500 nM.

Turning to `O=C(O)c1ccc2c(C3CCCCC3)c3n(c2c1)CC(c1nnn(CC2CCCO2)n1)=Cc1ccccc1-3` (centres unmarked) [Example 8, 13-cyclohexyl-6-[2-[(tetrahydro-2-furanyl)methyl]-2H-tetrazol-5-yl]-5H-indolo[2,1-a][2]benzazepine-10-carboxylic acid], in the test with HCV replicon cells, the EC50 is over 500 nM. At HCV NS5B, the IC50 lay in the range of 1 to 500 nM.

`COC(=O)c1ccc2c(C3CCCCC3)c3n(c2c1)CC(c1ncc(CCC(=O)N2CCOCC2)o1)=Cc1ccccc1-3` [Example 35] gave an EC50 in the test with HCV replicon cells of over 500 nM. The IC50 against HCV NS5B was over 500 nM.

For the molecule `CN(C)S(=O)(=O)NC(=O)c1ccc2c(C3CCCCC3)c3n(c2c1)CC(c1ncc(CCC(=O)N2CCOCC2)o1)Cc1ccccc1-3` (centres unmarked) [Example 38, 13-cyclohexyl-N-[(dimethylamino)sulfonyl]-6,7-dihydro-6-[5-[3-(4-morpholinyl)-3-oxopropyl]-2-oxazolyl]-5H-indolo[2,1-a][2]benzazepine-10-carboxamide], in the test with HCV replicon cells, the EC50 was 1 to 500 nM. The same molecule gave an IC50 at HCV NS5B of 1 to 500 nM.
